Entries after “also recorded” stand apart in the source; their conditions may differ. Read-outs that look alike come from different tables or passages of the source. One block for each molecule: values may come before it.
Experiments:
HFF = experiment: Cytotoxicity assay, HFF cell line
Method: (§1) We next examined the cytotoxicity profile of the pronucleotide derivatives in different cell lines such as MDBK, Vero, and HFF.
(§2) Standard MTF assays were performed in 96-well plates using the Promega CellTiter96 Non-radioactive Cell Proliferation Assay Kit in conjunction with a 96-well Plate Reader (ThermoMax, Molecular devices), and using MDBK, Vero, and TIFF cell lines (obtained from ATCC). Several controls were employed including the nucleoside analogs 3TC, AZT, and ddC, as well as, media without drugs. SDS was used as a positive cytotoxic control. All pronucleotides were tested in triplicate at concentrations of 100, 300, and 1000 μM. Following a 24-hour incubation of cells with the test substance, the MTF assay was carried out.

MDBK = experiment: Cytotoxicity assay, MDBK cell line
Method: as §1, §2

Vero = experiment: Cytotoxicity assay, Vero cell line
Method: as §1, §2

[1] = Bioreversibility (hydrolytic conversion to parent dinucleotide 5) in rabbit serum, HPLC; details: for time for almost complete conversion to 3′dApsU2′-OMe on serum treatment: rabbit serum, 37° C.; for t1/2 (min) in serum: rabbit
Method: (§3) Evaluation of bioreversibility of the pronucleotides was carried out in rabbit serum in phosphate buffer at 37° C. In order to monitor the hydrolytic conversion of the pronucleotides to the dinucleotide 5, aliquots of incubate were removed at different time points, processed, and analyzed using reversed-phase HPLC.
Bioreversibility studies were carried out as follows: A stock solution of each analog was prepared by dissolving 2 mg in 100 μL of DMSO. 10 μL aliquots were diluted with 90 μL of phosphate buffer (0.1 M, pH 7.0) and 100 μL aliquots of rabbit serum. The mixture was incubated at 37° C. in a water bath. Aliquots were removed at different time points and diluted with 200 μL of methanol to stop the reaction. The incubate was then centrifuged, supernatant concentrated in a speed vac and diluted with 200 μL of 0.1 M ammonium acetate buffer prior to injection into HPLC. Reversed-phase HPLC analysis was carried out using a Waters Instrument equipped with a 600Egradient controller, and a 996 photodiode array detector with Millennium software. X-terra MS C18 2.5 μm, 2.1×20 mm column and an operating gradient of 100% A to 80% B over 30 minutes of buffer A (0.1 M NH4OAc) and buffer B (80:20, CH3CN:NH4OAc) was employed. Retention time for prodrugs ranged from 16 to 18 minutes whereas that of the Rp,Sp dinucleotide 5 was 13.5, 13.8 minutes.

[2] = Stability in simulated intestine fluid (SIF); type: in vitro ADME; details: 1 h at 37° C.
Method: (§4) The stability of prodrugs in simulated gastric fluid (SGF) and simulated intestine fluid (SIF) at 37° C. were examined. SGF and SIF were prepared following reported procedures and prodrugs were incubated separately with SGF and SIF for 1 h at 37° C., processed, and analyzed using reverse-phase HPLC.

[3] = Metabolism in vitro with mouse liver microsomes; type: in vitro ADME
Description: (§5) This would support the hypothesis that the antiviral activity of 3-dApsU2′-OMe and other di-, and tri-nucleotides is due to the intact nucleotide structure and not due to its metabolites. This is in contrast to traditional antiviral nucleosides, which require metabolic activation and conversion to triphosphate derivatives for their action.

[4] = Metabolism in vitro with human liver microsomes; type: in vitro ADME
Description: as §5
(§6) This is in contrast to traditional antiviral nucleosides, which require metabolic activation and conversion to triphosphate derivatives for their action.

HBV = details: Iyer et al., Antimicrob. Agents and Chemotherapy, 48, 2318-2320, 2004; cited from earlier work
[5] = type: in vitro ADME
Description: However, the challenge in the case of nucleotides and dinucleotides is that they contain highly acid-labile purine and pyrimidine moieties in their structures. Thus, although masking the negative charge of these molecules might aid in their cellular diffusion by increased lipohilicity, it is not known whether they will be stable in gastric mucosa long enough to be absorbed orally. […] Such degradative process is known to occur by initial protonation of nitrogen of the nucleobase followed by depurination and cleavage of the sugar ring.
as §4

[6] = Pharmacokinetic study in woodchuck, intravenous; type: in vivo
Description: as §6

human hepatitis B virus = type: in vivo, transgenic mice
[7] = Weight change and apparent toxicity in the HBV transgenic mouse study
Method: Male and female transgenic mice (founder 1.3.32) were infected with human hepatitis B virus. […] The positive control, ADV, was administered at 10 mg/kg/d. Statistical significance is indicated as *P≤0.05, **P≤0.01, ***P≤0.001 compared to placebo vehicle. Measurements of serum HBeAg, PEI are reported according to International Immuno Diagnostics standardized assay using Paul Ehrlich International Units (PEI U).

[8] = pH 7.2
Method: as §3

pig liver esterase (PLE) = system: pig liver esterase (PLE)
Method: as §3

bovine chymotrypsin = bovine chymotrypsin (Bos taurus, UniProt P00766)
[9] = oral once daily for 14 days, 6a 400, 6k 300, ADV 10 mg/kg/d

Structure (SMILES): CO[C@H]1C(OP(=O)(OC[C@H]2O[C@@H](n3cnc4c(N)ncnc43)CC2O)SCOC(=O)CCC(C)C2CCC3C4CCC5CC(O)CCC5(C)C4CC(O)C23C)[C@@H](CO)O[C@H]1n1ccc(=O)[nH]c1=O (some centres unmarked) [Compound 6l]
Cytotoxicity assay (um) HFF (HFF; Table 5, 24-hour incubation): >1000 um
Cytotoxicity assay (um) MDBK (MDBK; Table 5, 24-hour incubation): >1000 um
Cytotoxicity assay (um) Vero (Vero; Table 5, 24-hour incubation): >1000 um

Structure (SMILES): CO[C@H]1C(OP(=O)(OC[C@H]2O[C@@H](n3cnc4c(N)ncnc43)CC2O)SCOC(=O)C(Cc2ccccc2)NC(=O)OC(C)(C)C)[C@@H](CO)O[C@H]1n1ccc(=O)[nH]c1=O (stereo partly drawn) [Compound 6m, N-(t-butoxycarbonyl)-L-phenylalaninate Analog 6m of 3′dApsU2′OMe]
Cytotoxicity assay (um) HFF (HFF; Table 5, 24-hour incubation): >1000 um
Cytotoxicity assay (um) MDBK (MDBK; Table 5, 24-hour incubation): >1000 um
Cytotoxicity assay (um) Vero (Vero; Table 5, 24-hour incubation): >1000 um
time for almost complete conversion to 3′dApsU2′-OMe on serum treatment [1]: ~3 h

Structure (SMILES): COC1C(OP(=O)([S-])OCC2OC(n3cnc4c(N)ncnc43)CC2O)C(CO)OC1n1ccc(=O)[nH]c1=O.[Na+] (mixture of isomers) [3-dApsU2′-OMe]
stability in SIF [2]: relatively stable
significant metabolism in vitro [3]: do not occur
significant metabolism in vitro [4]: do not occur; also recorded: absence of significant metabolism
anti-HBV activity in the transgenic mouse model (HBV): excellent anti-HBV activity
time of decomposing in SGF ([5]; SGF, 37° C.): about 15 min
half-life in simulated gastric fluid ([5]; simulated gastric fluid): less than 10 minutes
elimination in the urine ([6]; IV): mostly intact material
plasma half-life ([6]; intravenous (IV) administration): about 1 h

Structure (SMILES): COC1C(OP(=O)(OCC2OC(n3cnc4c(N)ncnc43)CC2O)SCCCCOC(=O)c2ccccc2)C(CO)OC1n1ccc(=O)[nH]c1=O (mixture of isomers) [Compound 6f]
CC50 (MDBK): > 1000 µM
CC50 (Vero): > 1000 µM
t1/2 (min) in serum [1]: >120^@ min

Structure (SMILES): COC1C(OP(=O)(OCC2OC(n3cnc4c(N)ncnc43)CC2O)SCCCCOC(C)=O)C(CO)OC1n1ccc(=O)[nH]c1=O (mixture of isomers) [Compound 6e]
CC50 (MDBK; read-out: CC50(μM) MDBK, Table 4, 24-hour incubation): > 1000 µM
CC50 (Vero; read-out: CC50(μM) Vero, Table 4, 24-hour incubation): > 1000 µM
t1/2 (min) in serum [1]: >60^@ min

Structure (SMILES): COC1C(OP(=O)(OCC2OC(n3cnc4c(N)ncnc43)CC2O)SCCCCNC(=O)c2cccnc2)C(CO)OC1n1ccc(=O)[nH]c1=O (mixture of isomers) [Compound 6j]
CC50 (HFF): > 1000 µM
CC50 (MDBK): > 1000 µM
CC50 (Vero): > 1000 µM

Structure (SMILES): CO[C@H]1C(OP(=O)(OC[C@H]2O[C@@H](n3cnc4c(N)ncnc43)CC2O)SCOC(=O)OC(C)C)[C@@H](CO)O[C@H]1n1ccc(=O)[nH]c1=O (some centres unmarked) [Compound 6k, S-isopropylcarbonyloxymethyl Thiophosphate Derivative 6k of 3′dApsU2′OMe]
Liver HBV RNA (log transcripts ± sd) (human hepatitis B virus; [9]): 10.8 ± 0.4 log transcripts
QPCR Liver HBV DNA (pg/μg mean ± sd) (human hepatitis B virus; [9]): 13.3 ± 12 pg/µg
Serum HBeAg, PEI U/mL (mean ± sd) (human hepatitis B virus; [9]): 67 ± 0.6 PEI U/mL
Serum HBsAg (signal/cutoff units ± sd) (human hepatitis B virus; [9]): 55 ± 59 signal/cutoff units
Southern blot Liver HBV DNA (pg/μg mean ± sd) (human hepatitis B virus; [9]): 5.7 ± 3.2 pg/µg
Cytotoxicity assay (um) HFF (HFF; Table 5, 24-hour incubation): >1000 um
Cytotoxicity assay (um) MDBK (MDBK; Table 5, 24-hour incubation): >1000 um
Cytotoxicity assay (um) Vero (Vero; Table 5, 24-hour incubation): >1000 um
apparent toxicity at the high doses employed ([7]; 400 mg/kg/d (6a), 300 mg/kg/d (6k), oral, 14 days): no apparent toxicity
% weight change ± sd [7, 9]: 4.3 ± 1.8%
time for almost complete conversion to 3′dApsU2′-OMe on serum treatment [1]: ~3 h

Structure (SMILES): COC1C(OP(=O)(OCC2OC(n3cnc4c(N)ncnc43)CC2O)SCOC(=O)OC(C)(C)C)C(CO)OC1n1ccc(=O)[nH]c1=O (mixture of isomers) [Compound 6t]
Cytotoxicity assay (um) HFF (HFF): >1000 um
Cytotoxicity assay (um) MDBK (MDBK): >1000 um
Cytotoxicity assay (um) Vero (Vero): >1000 um

Structure (SMILES): COC1C(OP(=O)(OCC2OC(n3cnc4c(N)ncnc43)CC2O)SCCCCNC(=O)c2ccccc2)C(CO)OC1n1ccc(=O)[nH]c1=O (mixture of isomers) [Compound 6i]
CC50 (MDBK): > 1000 µM
CC50 (Vero): > 1000 µM

Structure (SMILES): COC1C(OP(=O)(OCC2OC(n3cnc4c(N)ncnc43)CC2O)SCCCCOC(=O)c2cccnc2)C(CO)OC1n1ccc(=O)[nH]c1=O (mixture of isomers) [Compound 6g]
CC50 (HFF): > 1000 µM
CC50 (MDBK): > 1000 µM
CC50 (Vero): > 1000 µM
t1/2 (min) in serum [1]: >120^@ min

time stable in phosphate buffer [8]: up to 24 h
hydrolytic action of pig liver esterase (PLE) (pig liver esterase (PLE)): resistant
hydrolytic action of bovine chymotrypsin (bovine chymotrypsin): resistant
time for complete conversion to the parent 5 [1]: ~3 h
Structure (SMILES): COC1C(OP(=O)(OCC2OC(n3cnc4c(N)ncnc43)CC2O)SCc2ccc(OC(=O)C(C)C)cc2)C(CO)OC1n1ccc(=O)[nH]c1=O (mixture of isomers) [Compound 6b]
CC50 (HFF): > 1000 µM
CC50 (MDBK): > 1000 µM
CC50 (Vero): > 1000 µM

Structure (SMILES): COC1C(OP(=O)(OCC2OC(n3cnc4c(N)ncnc43)CC2O)SCc2ccc(NC(C)=O)cc2)C(CO)OC1n1ccc(=O)[nH]c1=O (mixture of isomers) [Compound 6d]
CC50 (HFF): > 1000 µM
CC50 (MDBK): > 1000 µM
CC50 (Vero): > 1000 µM

Structure (SMILES): CC(C)(C)C(=O)OCOP(=O)(COCCn1cnc2c(N)ncnc21)OCOC(=O)C(C)(C)C [ADV, adefovir dipivoxil, reference compound]
Liver HBV RNA (log transcripts ± sd) (human hepatitis B virus; mouse, in vivo): 10.5 ± 0.4 log transcripts
QPCR Liver HBV DNA (pg/μg mean ± sd) (human hepatitis B virus; mouse, in vivo): 1.7 ± 1.1 pg/µg
Serum HBeAg, PEI U/mL (mean ± sd) (human hepatitis B virus; mouse, in vivo): 59 ± 9.7 PEI U/mL
Serum HBsAg (signal/cutoff units ± sd) (human hepatitis B virus; mouse, in vivo): 73 ± 52 signal/cutoff units
Southern blot Liver HBV DNA (pg/μg mean ± sd) (human hepatitis B virus; mouse, in vivo): 0.9 ± 1.1 pg/µg

Structure (SMILES): COC1C(OP(=O)(OCC2OC(n3cnc4c(N)ncnc43)CC2O)SCOC(=O)OCC(C)C)C(CO)OC1n1ccc(=O)[nH]c1=O (mixture of isomers) [Compound 6s]
Cytotoxicity assay (um) HFF (HFF): >1000 um
Cytotoxicity assay (um) MDBK (MDBK): >1000 um
Cytotoxicity assay (um) Vero (Vero): >1000 um

Structure (SMILES): CCCCOCCOC(=O)OCSP(=O)(OCC1OC(n2cnc3c(N)ncnc32)CC1O)OC1C(CO)OC(n2ccc(=O)[nH]c2=O)C1OC (mixture of isomers) [Compound 6u]
Cytotoxicity assay (um) HFF (HFF): >1000 um
Cytotoxicity assay (um) MDBK (MDBK): >300 um
Cytotoxicity assay (um) Vero (Vero): >1000 um

From US10344046B2, “Nucleotide and oligonucleotide prodrugs” (priority 2005, dated 2019)
